Test results reported in PMC11984392, “EphA2-targeted alpha-particle theranostics for enhancing PDAC treatment” (Theranostics, 2025).
*1 amine or outer side, *2 acyl side, *3 side chain or, on linkers, in order; H or OH if unused. Where a SMILES comes first, the peptide text is derived from it. Bridges are numbered along the chain shown (N, C = ends). [ ]: non-standard residue; d: D form. The star is where a group is joined. DOTA = O=C(O)CN1CCN(CC(=O)O)CCN(CC(=O)*)CCN(CC(=O)O)CC1; TATA = O=C(CC[*:1])N1CN(C(=O)CC[*:2])CN(C(=O)CC[*:3])C1; NOTA = O=C(O)CN1CCN(CC(=O)O)CCN(CC(=O)*)CC1; Hyp = O=C(O)[C@@H]1C[C@@H](O)CN1; hArg = N=C(N)NCCCC[C@H](N)C(=O)O; PEG2 = NCCOCCOCCC(=O)O; Sar = CNCC(=O)O

Key:
human EphA2 = target: T1, human EphA2 (Homo sapiens, UniProt P29317); test: SPR binding affinity (Biacore T200, CM5 chip); details: 25 °C, HBS-P + 0.1% DMSO, 1:1 kinetics model
T1 construct: purchased R&D systems 3035-A2
Experimental: (§1) All experiments were conducted using a Biacore T200 instrument (GE Healthcare Life Sciences) with a CM5 chip at 25 °C. His-tagged human EphA2 (R&D systems, catalog # 3035-A2, 56.9 kDa, 4.46 μM stock concentration) and mouse EphA2 (SinoBiological, cat.# 50586-M08H, 58 kDa, 8.6 μM stock concentration) were immobilized onto the CM5 chip. AJ201 (3328.8 Da, 10 mM stock concentration) and AJ210 (3072.5 Da, 10 mM stock concentration) were used as analyte to flow over the ligand immobilized surface. Flow Cell (FC) 1 was used as the reference for FC2, FC3 for FC4. Anti-His antibody (2 mg/ml stock concentration) was diluted (1:100 dilution, 0.02 mg/ml diluted concentration) in 10 mM sodium acetate buffer at pH 4.5 and immobilized on all FCs to a level of ~8000 to 11000 RU using the standard amine coupling chemistry. HBS-P (10 mM HEPES pH 7.4, 150 mM NaCl, 0.05% v/v surfactant P20) was used as the immobilization running buffer. Human EphA2 was diluted (1:5 dilution) in HBS-P captured onto FC2 to a level of ~750 RU. Mouse EphA2 was diluted (1:10 dilution) in HBS-P captured onto FC4 to a level of ~750 RU. HBS-P was used as the capture running buffer. The Rmax values assume 1:1 interaction mechanism. Overnight kinetics were performed for all analytes in the presence of HBS-P+0.1% DMSO. The flow rate of all analyte solutions was maintained at 50 μL/min. The contact and dissociation times used were 120s and 600s, respectively. Glycine solution (pH 1.5) was injected for 15 s for surface regeneration and fresh ligands were captured in the beginning of each injection cycle. Sensorgrams from the overnight kinetics was evaluated by using 1:1 kinetics model fitting.

mouse EphA2 = target: T2, mouse EphA2 (Mus musculus, UniProt Q03145); test: SPR binding affinity (Biacore T200, CM5 chip); details: 25 °C, HBS-P + 0.1% DMSO, 1:1 kinetics model
T2 construct: purchased SinoBiological 50586-M08H
Experimental: as §1

Ex vivo biodistribution [1] = test: Ex vivo biodistribution; parameters: species or system NSG mice; details: both sexes, NSG, mouse, in vivo, 50 uCi, total radioactivity
Experimental: Animal studies were performed under Johns Hopkins University Animal Care and Use Committee (ACUC)-approved protocol (Principal investigator: Sridhar Nimmagadda, Ph.D. and Protocol number M021M175). Male and Female NSG mice (5-6 weeks old) were purchased from JHU immunocompromised core and used to establish xenografts by administering cells subcutaneously (top right flank, unless otherwise noted) to form various tumor models within 3-4 weeks. Following cell numbers were used: Panc1, AsPC1, BxPC3 (1 M), Hs766T and SU8686 (2 M), CFPAC and Panc1005 (5 M). Imaging or biodistribution studies (n = 3-5) were conducted on mice with tumor volumes of 100-200 mm^3. The Panc1 orthotopic tumor model was established by surgically implanting a 3-5 mm^3 section of Panc1 tumor xenograft directly onto the pancreas. The implanted tumors were allowed to grow and were ready for imaging after 10 days of implantation.
(§2) Mice with 100-200 mm^3 tumor volume were used for ex vivo biodistribution studies. For radiotracer pharmacokinetics and dosimetry studies, mice with Panc1 tumor xenograft received ~80 µCi (2.96 MBq) [^68Ga]AJ201 and were sacrificed at pre-determined time points (5, 30, 60, 90 and 120 min). All other mice were injected with ~50 µCi (1.85 MBq; 0.2 to 0.5 nmol) Ga-68 labeled radiotracer and were sacrificed at 60 min. The selected tissues were collected, weighed, counted, and their %ID/g values calculated for biodistribution analysis. For pharmacokinetics and dosimetry studies, selected tissues included blood, muscle, tumor, thymus, heart, lung, liver, pancreas, stomach, small intestine, large intestine, spleen, adrenals, kidney, bladder, femur, brain and tumor xenografts. For other studies, selected tissues were blood, muscle, tumor, heart, lung, liver, pancreas, small intestine, spleen, kidney.

Ex vivo biodistribution [2] = format: in vivo, mice; details: mouse, in vivo, 50 uCi, total radioactivity
Experimental: as §2

[3] = parameters: species or system C57BL/6 mice; details: mouse, in vivo
Experimental: Male C57BL/6 mice (5-6 weeks old) were used to establish syngeneic tumor by administering KPC cells subcutaneously in top right flank. For this study, 0.5 million cells were inoculated subcutaneously into the upper flank of each animal. Tumor growth was closely monitored, and once tumors became palpable, their volumes were measured using a vernier caliper. Animals were then randomized into groups to ensure balanced baseline tumor sizes, with median volumes of approximately 60 mm^3 (PBS group median: 60 mm^3; radiotherapeutic group median: 57 mm^3). Following randomization, two subsequent doses of 0.5 µCi of [^225Ac]AJ210 were administered intravenously with the interval of 24 h. Similarly, saline was administered in the control group. Measurements of tumor volume and body weight were conducted in alternative days until the end of study. Blood was collected retro-orbitally at 3-, 7- and 28-days post radiotherapy injection and hematological parameter were assessed using SCIL Vet ABC Plus instrument.
Tissue blocks and slides of liver, kidneys and lungs were prepared by JHU histology core and staining was also carried out by the Core. Briefly, tissue samples were fixed in formalin for 24 h and rinsed with PBS and stored in PBS. These tissue samples were dehydrated through graded ethanol series, cleared in xylene, and embedded in paraffin. Sections (4-5 µm thick) were cut using a microtome and mounted on glass slides. The slides were deparaffinized in xylene, rehydrated through graded ethanol to distilled water, and stained with hematoxylin for 5 min. After rinsing in running water, sections were differentiated in 1% acid alcohol, blued in ammonia water, and counterstained with eosin for 1-2 min. Slides were dehydrated, cleared in xylene, and mounted with a coverslip using a permanent mounting medium. Images were captured under a brightfield microscope to evaluate tissue structure and histopathological features.

T2 sequence (Q03145 26-535 limits assumed): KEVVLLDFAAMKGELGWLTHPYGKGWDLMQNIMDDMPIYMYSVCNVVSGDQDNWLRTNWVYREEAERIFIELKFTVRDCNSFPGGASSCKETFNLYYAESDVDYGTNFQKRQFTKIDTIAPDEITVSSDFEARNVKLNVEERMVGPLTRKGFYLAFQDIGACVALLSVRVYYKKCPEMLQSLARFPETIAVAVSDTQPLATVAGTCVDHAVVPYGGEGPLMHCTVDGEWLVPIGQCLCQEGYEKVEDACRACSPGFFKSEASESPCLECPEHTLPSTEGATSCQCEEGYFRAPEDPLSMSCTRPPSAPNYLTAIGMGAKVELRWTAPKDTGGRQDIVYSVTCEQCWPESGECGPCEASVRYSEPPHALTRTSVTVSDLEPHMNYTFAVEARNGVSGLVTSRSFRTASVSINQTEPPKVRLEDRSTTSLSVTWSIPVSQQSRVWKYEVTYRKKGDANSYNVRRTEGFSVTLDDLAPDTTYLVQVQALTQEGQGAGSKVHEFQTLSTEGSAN
T1 sequence (P29317 25-534 limits assumed): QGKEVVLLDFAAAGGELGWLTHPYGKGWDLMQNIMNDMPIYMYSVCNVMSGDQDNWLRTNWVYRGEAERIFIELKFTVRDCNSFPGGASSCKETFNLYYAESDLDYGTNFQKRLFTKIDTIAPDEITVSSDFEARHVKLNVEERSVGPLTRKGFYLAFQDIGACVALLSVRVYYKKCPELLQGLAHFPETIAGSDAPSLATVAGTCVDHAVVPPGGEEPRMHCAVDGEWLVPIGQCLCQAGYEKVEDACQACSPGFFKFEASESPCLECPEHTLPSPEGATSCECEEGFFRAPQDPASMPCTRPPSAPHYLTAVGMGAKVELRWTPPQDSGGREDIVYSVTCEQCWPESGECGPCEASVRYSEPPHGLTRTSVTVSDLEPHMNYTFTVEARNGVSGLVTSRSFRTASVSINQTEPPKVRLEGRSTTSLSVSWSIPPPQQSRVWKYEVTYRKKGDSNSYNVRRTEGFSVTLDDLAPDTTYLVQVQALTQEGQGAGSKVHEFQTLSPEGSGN

Which koff (human EphA2) does the source give for `CC(C)C[C@@H]1NC(=O)[C@@H]2CSCCC(=O)N3CN(CN(C3)C(=O)CCSC[C@H](NC(=O)[C@H](CC(=O)O)NC(=O)[C@H](CCCCNC(=N)N)NC(=O)[C@H](C)NC(=O)CNC(=O)CN(C)C(=O)CN(C)C(=O)CN(C)C(=O)[C@H](CCCNC(=N)N)NC(=O)CNC(=O)CCOCCOCCNC(=O)CN3CCN(CC(=O)O)CCN(CC(=O)O)CC3)C(=O)N3C[C@H](O)C[C@H]3C(=O)N[C@@H](CC(C)C)C(=O)N[C@@H](C(C)C)C(=O)N[C@@H](CC(N)=O)C(=O)N3CCC[C@H]3C(=O)N[C@@H](CC(C)C)C(=O)N2)C(=O)CCSC[C@@H](C(N)=O)NC(=O)[C@H](CCCCNC(=N)N)NC(=O)[C@H](Cc2c[nH]c3ccccc23)NC(=O)[C@@H](CC(=O)O)NC(=O)[C@@H]2CCCN2C(=O)[C@H](Cc2c[nH]cn2)NC1=O` [AJ201] ({NOTA-PEG2}-GR[Sar][Sar][Sar]GA[hArg]DC[Hyp]LVNPLCLHP[dD]W[hArg]C-NH2; linker 10-17-24 via TATA) here?
The koff was 0.00133 s⁻¹.

What about the kon (human EphA2) of the same molecule?
Its kon is 7.6e+06 M⁻¹ s⁻¹.

What about the koff (mouse EphA2) of the same molecule?
Its koff is 0.00302 s⁻¹.

And the kon (mouse EphA2)?
Its kon is 5.03e+06 M⁻¹ s⁻¹.

Which results are given for `CC(C)C[C@@H]1NC(=O)[C@@H]2CSCCC(=O)N3CN(CN(C3)C(=O)CCSC[C@H](NC(=O)[C@H](CC(=O)O)NC(=O)[C@H](CCCCNC(=N)N)NC(=O)[C@H](C)NC(=O)CNC(=O)CNC(=O)CNC(=O)CNC(=O)CNC(=O)CN3CCN(CC(=O)O)CCN(CC(=O)O)CCN(CC(=O)O)CC3)C(=O)N3C[C@H](O)C[C@H]3C(=O)N[C@@H](CC(C)C)C(=O)N[C@@H](C(C)C)C(=O)N[C@@H](CC(N)=O)C(=O)N3CCC[C@H]3C(=O)N[C@@H](CC(C)C)C(=O)N2)C(=O)CCSC[C@@H](C(N)=O)NC(=O)[C@H](CCCCNC(=N)N)NC(=O)[C@H](Cc2c[nH]c3ccccc23)NC(=O)[C@@H](CC(=O)O)NC(=O)[C@@H]2CCCN2C(=O)[C@H](Cc2c[nH]cn2)NC1=O` [[^68Ga]AJ210, metal not drawn] ({DOTA}-GGGGGA[hArg]DC[Hyp]LVNPLCLHP[dD]W[hArg]C-NH2; linker 9-16-23 via TATA)?
tissue uptake at 1 h (Ex vivo biodistribution [1]; Blood uptake): 0.96 ± 0.33 %ID/g; tissue uptake at 1 h (Ex vivo biodistribution [1]; Femur uptake): 0.38 ± 0.08 %ID/g; tissue uptake at 1 h (Ex vivo biodistribution [1]; Heart uptake): 0.84 ± 0.14 %ID/g; tissue uptake at 1 h (Ex vivo biodistribution [1]; Kidney uptake): 24.4 ± 9.98 %ID/g; tissue uptake at 1 h (Ex vivo biodistribution [1]; Liver uptake): 0.34 ± 0.06 %ID/g; tissue uptake at 1 h (Ex vivo biodistribution [1]; Lung uptake): 0.39 ± 0.08 %ID/g; tissue uptake at 1 h (Ex vivo biodistribution [1]; Muscle uptake): 0.4 ± 0.16 %ID/g; tissue uptake at 1 h (Ex vivo biodistribution [1]; Pancreas uptake): 0.3 ± 0.08 %ID/g; tissue uptake at 1 h (Ex vivo biodistribution [1]; Small intestine uptake): 0.62 ± 0.22 %ID/g; tissue uptake at 1 h (Ex vivo biodistribution [1]; Spleen uptake): 0.74 ± 0.22 %ID/g; tissue uptake at 1 h (Ex vivo biodistribution [1]; Stomach uptake): 0.09 ± 0.03 %ID/g; tissue uptake at 1 h (Ex vivo biodistribution [1]; Tumor uptake): 3.72 ± 0.66 %ID/g; tissue to tissue ratio at 1 h (Ex vivo biodistribution [1]; Tumor/Muscle ratio): 10.3 ± 4.01; tissue to tissue ratio at 1 h (Ex vivo biodistribution [1]; Tumor/Pancreas ratio): 13.1 ± 4.11; tissue to tissue ratio at 1 h (Ex vivo biodistribution [1]; Tumor/blood ratio): 4.09 ± 0.97; tissue uptake at 1 h (Ex vivo biodistribution [2]; Blood uptake): 0.56 ± 0.14 %ID/g; tissue uptake at 1 h (Ex vivo biodistribution [2]; Femur uptake): 0.29 ± 0.07 %ID/g; tissue uptake at 1 h (Ex vivo biodistribution [2]; Heart uptake): 0.24 ± 0.05 %ID/g; tissue uptake at 1 h (Ex vivo biodistribution [2]; Kidney uptake): 59.9 ± 16.4 %ID/g; tissue uptake at 1 h (Ex vivo biodistribution [2]; Liver uptake): 0.26 ± 0.05 %ID/g; tissue uptake at 1 h (Ex vivo biodistribution [2]; Lung uptake): 0.57 ± 0.13 %ID/g; tissue uptake at 1 h (Ex vivo biodistribution [2]; Muscle uptake): 0.19 ± 0.04 %ID/g; tissue uptake at 1 h (Ex vivo biodistribution [2]; Pancreas uptake): 0.24 ± 0.06 %ID/g; tissue uptake at 1 h (Ex vivo biodistribution [2]; Small intestine uptake): 0.64 ± 0.47 %ID/g; tissue uptake at 1 h (Ex vivo biodistribution [2]; Spleen uptake): 0.35 ± 0.07 %ID/g; tissue uptake at 1 h (Ex vivo biodistribution [2]; Stomach uptake): 0.17 ± 0.07 %ID/g; tissue uptake at 1 h (Ex vivo biodistribution [2]; Tumor uptake): 1.06 ± 0.25 %ID/g; tissue to tissue ratio at 1 h (Ex vivo biodistribution [2]; Tumor/Muscle ratio): 5.61 ± 0.69; tissue to tissue ratio at 1 h (Ex vivo biodistribution [2]; Tumor/Pancreas ratio): 4.65 ± 1.46; tissue to tissue ratio at 1 h (Ex vivo biodistribution [2]; Tumor/blood ratio): 1.94 ± 0.44

For `CC(C)C[C@@H]1NC(=O)[C@@H]2CSCCC(=O)N3CN(CN(C3)C(=O)CCSC[C@H](NC(=O)[C@H](CC(=O)O)NC(=O)[C@H](CCCCNC(=N)N)NC(=O)[C@H](C)NC(=O)CNC(=O)CNC(=O)CNC(=O)CNC(=O)CNC(=O)CN3CCN(CC(=O)O)CCN(CC(=O)O)CCN(CC(=O)O)CC3)C(=O)N3C[C@H](O)C[C@H]3C(=O)N[C@@H](CC(C)C)C(=O)N[C@@H](C(C)C)C(=O)N[C@@H](CC(N)=O)C(=O)N3CCC[C@H]3C(=O)N[C@@H](CC(C)C)C(=O)N2)C(=O)CCSC[C@@H](C(N)=O)NC(=O)[C@H](CCCCNC(=N)N)NC(=O)[C@H](Cc2c[nH]c3ccccc23)NC(=O)[C@@H](CC(=O)O)NC(=O)[C@@H]2CCCN2C(=O)[C@H](Cc2c[nH]cn2)NC1=O` [[^225Ac]AJ210, metal not drawn] ({DOTA}-GGGGGA[hArg]DC[Hyp]LVNPLCLHP[dD]W[hArg]C-NH2; linker 9-16-23 via TATA), which “H&E histology of kidney” value [3] is on record?
Its value is “no significant pathological changes”.

What about the “H&E histology of liver” value [3] of the same molecule?
The value was “no significant pathological changes”.

What about the “H&E histology of lungs” value [3] of the same molecule?
Its value is “no significant pathological changes”.

What about the “H&E staining of lung, liver and kidney sections” value [3] of the same molecule?
The value was “no visible histological abnormalities”.
